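Interpolation was linear, between the two tested concentrations surrounding the appropriate level; five concentrations were tested over 48 hours in 96-well plates. GI50 = concentration required for 50% inhibition of growth. At the TGI there is no net growth.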
Experiments:
Assay in all cases: DTP human tumour cell line panel, 48 h
HCC-2998 colon = test system: HCC-2998 colon
M14 melanoma = test system: M14 melanoma
SK-OV-3 ovarian = test system: SK-OV-3 ovarian
COLO 205 colon = test system: COLO 205 colon
786-0 renal = test system: 786-0 renal
UACC-62 melanoma = test system: UACC-62 melanoma
TK-10 renal = test system: TK-10 renal
CCRF-CEM leukemia = test system: CCRF-CEM leukemia
K-562 leukemia = test system: K-562 leukemia
T-47D breast = test system: T-47D breast

Row | SMILES | TGI (HCC-2998 colon) | TGI (M14 melanoma) | TGI (SK-OV-3 ovarian) | TGI (COLO 205 colon) | TGI (786-0 renal) | TGI (UACC-62 melanoma) | TGI (TK-10 renal) | TGI (CCRF-CEM leukemia) | TGI (K-562 leukemia) | TGI (T-47D breast) | GI50 (M14 melanoma) | GI50 (CCRF-CEM leukemia) | GI50 (HCC-2998 colon) | GI50 (SK-OV-3 ovarian) | GI50 (COLO 205 colon) | GI50 (T-47D breast) | GI50 (TK-10 renal)
1 | O=C1NC(Cc2ccccc2)C(=O)N2CCCC12 (centres undefined) | > 100 µM | > 100 µM | > 100 µM | > 100 µM | > 100 µM | > 100 µM | > 100 µM | > 100 µM | > 100 µM |  |  |  |  |  |  |  | 
2 | COc1cc(CC2C(=O)OCC2[C@@H](OC(C)=O)c2ccc3c(c2)OCO3)c(Br)c(OC)c1OC (some centres undefined) | > 100 µM | > 100 µM | > 100 µM | > 100 µM | > 100 µM | > 100 µM | > 100 µM | > 100 µM |  |  |  |  |  |  |  |  | 
3 | COc1ccc(C=NCCCN=Cc2ccc(OC)cc2O)c(O)c1 |  | > 100 µM |  |  | > 100 µM | > 100 µM | > 100 µM | > 100 µM | > 100 µM |  |  |  |  |  |  |  | 
4 | O=C1C(=Cc2ccc([N+](=O)[O-])o2)C(=O)N(CCc2ccccc2)S(=O)(=O)N1CCc1ccccc1 | > 100 µM | 29 µM | > 100 µM | 36.9 µM | 40.3 µM | 31 µM | > 100 µM | > 100 µM | > 100 µM |  |  |  |  |  |  |  | 
5 | Cc1cc(=O)[nH]c(NNC(C#N)c2ccc(N(C)C)cc2)n1 (centres undefined) |  | > 100 µM | > 100 µM | > 100 µM | > 100 µM | > 100 µM | > 100 µM | > 100 µM | > 100 µM |  |  |  |  |  |  |  | 
6 | NNC(=S)NN/C=C(\C=Nc1ccccc1)[N+](=O)[O-] | > 100 µM | > 100 µM | > 100 µM | > 100 µM | > 100 µM | > 100 µM | > 100 µM |  |  |  |  |  |  |  |  |  | 
7 | Cc1csc2c(=O)n(COCc3ccccc3)c(=O)[nH]c12 |  | > 100 µM |  | > 100 µM | > 100 µM |  | > 100 µM | > 100 µM | > 100 µM |  |  |  |  |  |  |  | 
8 | O=C(c1cccnc1)N1N=C(c2ccc3c(c2)OCO3)CC1(O)c1cc(F)c(Cl)cc1Cl (centres undefined) |  | > 100 µM | > 100 µM | 31.2 µM | 35.2 µM |  | > 100 µM | 75.4 µM | > 100 µM | 43.2 µM |  |  |  |  |  |  | 
9 | COCC1N=C(c2cc(OC)c(OC)c(OC)c2-c2cc3c(cc2[C@@H](C)O)OCO3)O[C@H]1c1ccccc1 (some centres undefined) | > 100 µM |  | > 100 µM | > 100 µM |  | > 100 µM |  | > 100 µM | > 100 µM |  |  |  |  |  |  |  | 
10 | O=C1NC2OC(CO)C(O)C(O)C2O1 (centres undefined) | > 100 µM | > 100 µM | > 100 µM | > 100 µM | > 100 µM | > 100 µM | > 100 µM | > 100 µM | > 100 µM |  |  |  |  |  |  |  | 
11 | CN(C)C1(c2cc3ccccc3s2)CCCCC1 | 57 µM | 35.7 µM | > 100 µM | > 100 µM | 49.8 µM | 60.6 µM | > 100 µM | 0.0223 µM | 65.8 µM |  |  |  |  |  |  |  | 
12 | COc1ccc(OC)c(-c2cc(=O)c3cc4c(cc3[nH]2)OCO4)c1 | 17.6 µM | > 100 µM | 17.7 µM | 7.93 µM | > 100 µM | > 100 µM | > 83.3 µM | > 100 µM | > 100 µM |  |  |  |  |  |  |  | 
13 | N#Cc1c(O)c(C=O)c(=O)n2c1[nH]c1ccccc12 | > 100 µM | > 100 µM | > 100 µM | > 100 µM | > 100 µM | > 100 µM | > 100 µM | > 100 µM | > 100 µM |  |  |  |  |  |  |  | 
14 | O=C1C(Cl)C(c2ccc([N+](=O)[O-])cc2)N1n1cnc2ccccc2c1=O (centres undefined) | > 100 µM | > 100 µM | 50.3 µM | > 100 µM | > 100 µM | > 100 µM | 83.2 µM | > 100 µM | > 100 µM |  |  |  |  |  |  |  | 
15 | COc1ccc(C2NC3=C(CCCC3)N2)cc1 | > 100 µM | > 100 µM | > 100 µM | > 100 µM | > 100 µM |  | > 100 µM | > 100 µM |  |  |  |  |  |  |  |  | 
16 | Nc1nc(N)c2nc(CNc3ccc(C(=O)NC(CCNC(=O)c4ccccc4C(=O)O)C(=O)O)cc3)cnc2n1 (centres undefined) |  | > 100 µM | > 100 µM | > 100 µM | > 100 µM |  | > 100 µM | > 100 µM | > 100 µM | > 100 µM | 0.0737 µM | 0.0065 µM |  |  |  |  | 
17 | Cc1nc(-n2nc(-c3ccccc3)cc2-c2ccccc2)sc1C(/C=C/c1ccc([N+](=O)[O-])cc1)=N/NC(N)=S | 74 µM | > 100 µM | > 100 µM | > 100 µM | 43.6 µM | > 100 µM | > 100 µM | 90.2 µM | 62.7 µM |  |  |  |  |  |  |  | 
18 | Nc1ccn(CCCC(c2ccccc2)P(=O)(O)O)c(=O)n1 (centres undefined) | > 100 µM | > 100 µM | > 100 µM | > 100 µM | > 100 µM | > 100 µM | > 100 µM | > 100 µM | > 100 µM |  |  |  |  |  |  |  | 
19 | COC(=O)C1=C(C)NC2=C(C(=O)c3ccccc32)C1c1cn[nH]c1-c1ccccc1 (centres undefined) |  | > 100 µM | > 100 µM | 52 µM | > 100 µM | > 100 µM |  | > 100 µM | > 100 µM | > 100 µM |  |  |  |  |  |  | 

Row | SMILES | TGI (HCC-2998 colon) | TGI (M14 melanoma) | TGI (SK-OV-3 ovarian) | TGI (COLO 205 colon) | TGI (786-0 renal) | TGI (UACC-62 melanoma) | TGI (TK-10 renal) | TGI (CCRF-CEM leukemia) | TGI (K-562 leukemia) | TGI (T-47D breast) | GI50 (M14 melanoma) | GI50 (CCRF-CEM leukemia) | GI50 (HCC-2998 colon) | GI50 (SK-OV-3 ovarian) | GI50 (COLO 205 colon) | GI50 (T-47D breast) | GI50 (TK-10 renal)
20 | COC(=O)CC1NC(=O)C1C(C)(OC)OC (centres undefined) | > 100 µM | > 100 µM |  | > 100 µM | > 100 µM | > 100 µM | > 100 µM | > 100 µM | > 100 µM |  |  |  |  |  |  |  | 
21 | Cn1c(=O)oc2cc(C(=S)N3CCCCC3)ccc21 |  | > 100 µM | > 100 µM | > 100 µM | > 100 µM | > 100 µM | > 100 µM | > 100 µM | > 100 µM |  |  |  |  |  |  |  | 
22 | O=C(CC(=O)N1N=C(c2ccccc2)C(N=Nc2ccccc2Cl)C1=O)Nc1ccccc1Cl (centres undefined) | > 100 µM | > 100 µM | > 100 µM | > 100 µM | 49.6 µM | > 100 µM | 40.6 µM |  | > 100 µM |  |  |  |  |  |  |  | 
23 | CN(C)CCNC(=O)c1cccc2[nH]c(-c3ccc(Cl)cc3)nc12 | 16.9 µM |  | 25.1 µM | 9.29 µM |  | 17.5 µM |  | 35.7 µM | 12.6 µM |  |  |  |  |  |  |  | 
24 | CCOC(=O)C1=C(O)c2ccc(OC)cc2C(=O)C1=O | > 100 µM | > 100 µM | > 100 µM | > 100 µM | > 100 µM | > 100 µM | > 100 µM | > 100 µM | > 100 µM |  |  |  |  |  |  |  | 
25 | N/C(=N/N=C/c1cccc(F)c1)NO | > 100 µM | 56 µM | > 100 µM | > 100 µM | > 100 µM | 41 µM | > 100 µM | > 100 µM | > 100 µM |  |  |  |  |  |  |  | 
26 | Cc1cc(C)c(C(=O)/C(=C/c2ccccc2)c2ccccc2)c(C)c1 |  | > 100 µM | > 100 µM | > 100 µM | > 100 µM | > 100 µM | > 100 µM | > 100 µM | > 100 µM |  |  |  |  |  |  |  | 
27 | CC(C)OC(=O)c1cccnc1/C=N/O | > 100 µM | > 100 µM | > 100 µM | > 100 µM | > 100 µM | > 100 µM | > 100 µM | > 100 µM | > 100 µM |  |  |  |  |  |  |  | 
28 | COc1cc(CC(=O)c2cc3c(cc2-c2ccccc2)OCO3)cc(OC)c1OC | > 100 µM | > 100 µM | > 100 µM | > 100 µM | > 100 µM |  | > 100 µM | > 100 µM | > 100 µM |  |  |  |  |  |  |  | 
29 | CNC(=O)c1cc(Oc2cccc3nc(NC(=O)Nc4ccc(F)cc4F)ccc23)ccn1 | > 50 µM | > 50 µM |  |  |  |  |  | > 50 µM |  |  | 1.89 µM | > 50 µM | > 50 µM |  |  |  | 
30 | Brc1ccc(C[N+]23CN4CN(CN(C4)C2)C3)cc1 | > 100 µM | 33 µM | > 100 µM | 69.4 µM | > 100 µM | 30.5 µM | > 100 µM | 62.9 µM | > 100 µM |  |  |  |  |  |  |  | 
31 | O=C(CBr)NCCc1c[nH]c2ccccc12 | 24.9 µM | 3.24 µM | 7.31 µM | 3.19 µM | 2.74 µM | 3.29 µM | 3.37 µM | 0.552 µM | 8.41 µM |  |  |  |  |  |  |  | 
32 | O=c1cc(NNc2cccc(F)c2)[nH]c(=S)[nH]1 | > 100 µM | > 100 µM |  | > 100 µM | > 100 µM |  | > 100 µM |  | > 100 µM |  |  |  |  |  |  |  | 
33 | COc1ccc(N2C(=O)C3C=CC(n4[nH]c(=O)n(Cc5ccccc5)c4=O)CC3C2=O)cc1 (centres undefined) | > 100 µM | > 100 µM | > 100 µM | > 100 µM | > 100 µM | > 100 µM | > 100 µM | > 100 µM | > 100 µM |  |  |  |  |  |  |  | 
34 | O=C(NCCC1CN(S(=O)(=O)C(F)(F)F)c2ccccc21)OCc1ccccc1 (centres undefined) | > 100 µM | > 100 µM | > 100 µM | > 100 µM | > 100 µM | > 100 µM |  | > 100 µM | > 100 µM |  |  |  |  |  |  |  | 
35 | O=C(CSc1nnc(-c2ccc(N=Cc3ccc(Cl)cc3)cc2)o1)Nc1cccc([N+](=O)[O-])c1 |  | > 100 µM | > 100 µM | > 100 µM | > 100 µM | > 100 µM | > 100 µM | > 100 µM | > 100 µM |  |  |  |  |  |  |  | 
36 | COc1c(C)c(C/C=C(\C)CCCCO)c(OC)c2ccccc12 | 62.5 µM | > 100 µM | > 100 µM | > 100 µM | > 100 µM | > 100 µM | > 100 µM | 63 µM | 67.1 µM |  |  |  |  |  |  |  | 
37 | COC1=CC(c2ccc[nH]2)=N/C1=C\c1[nH]c(C)c(C)c1CCC(=O)OCc1ccccc1 |  | 1 µM | 5.16 µM | 1.15 µM |  |  | 3.09 µM | 2.59 µM |  | 0.876 µM | 0.285 µM | 0.142 µM |  | 1.79 µM | 0.257 µM | 0.227 µM | 0.39 µM
